What was measured:
TP = biological target: T1, TP (Homo sapiens, UniProt P21731); assay: U44069-mediated [Ca2+]i mobilization (CEREP); assay type: cell-based; conditions: CEREP assay, agonist U44069; read-out: IC50 Value for Inhibition of U44069-Mediated [Ca2+]i Mobilization
T1 construct: CEREP
T1 sequence (P21731 1-343): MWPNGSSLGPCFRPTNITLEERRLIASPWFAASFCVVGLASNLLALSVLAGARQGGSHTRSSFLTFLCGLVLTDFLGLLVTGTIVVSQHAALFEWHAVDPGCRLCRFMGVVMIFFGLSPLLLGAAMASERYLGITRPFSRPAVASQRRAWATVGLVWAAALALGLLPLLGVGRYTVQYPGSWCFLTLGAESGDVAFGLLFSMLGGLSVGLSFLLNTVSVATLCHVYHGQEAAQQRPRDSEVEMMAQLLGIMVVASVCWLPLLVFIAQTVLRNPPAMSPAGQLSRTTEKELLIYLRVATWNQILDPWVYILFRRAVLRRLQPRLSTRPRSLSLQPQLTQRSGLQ
From the text: FIG. 18 presents the effect of NTP42 and NTP48 on TP- or U44069-mediated signaling (CEREP use the related U44069 rather than U46619), including IC50 values for inhibition (see also Table 4). Those effects indicate that NTP42 & NTP48 are potent antagonists of U46609 or TP. The differences in IC50 values may be attributed to the differences in the particular conditions of the assay, including differences in cell type, agonist, calcium indicator, etc.
Table 4 is an example of the IC50 values of NTP42 and NTP48 to antagonize TP-mediated [Ca^2+]i mobilization following stimulation of cells with the alternative TP agonist […].

MCT-induced PAH = assay: Monocrotoline (MCT)-induced model of pulmonary arterial hypertension (PAH) in rats; assay type: in vivo, rat; conditions: for lumen: total vessel diameter ratio versus animals treated with MCT-alone: day 28, oral BID, NTP42 and TP20 0.25 mg/kg/dose, Sildenafil 50 mg/kg/dose
Experimental: FIGS. 19-23 show the efficacy of NTP42 in the monocrotoline (MCT)-induced model of pulmonary arterial hypertension (PAH) in rats. In brief, male Wistar/Kyoto rats were given a single dose of MCT (60 mg/kg, subcutaneously) and then treated with twice daily doses (oral dosing) for 28 days with either the drug vehicle, the test article NTP42 (0.25 mg/kg/dose, BID) or with the reference compounds Sildenafil (50 mg/kg/dose, BID) or TP20 (0.25 mg/kg/dose, BID). As a control, a group of rats were left untreated, i.e., no MCT or therapeutic drugs. At Day 28, post-MCT induction, rats were anaesthetised for cardiac surgery & hemodynamic parameters recorded. Thereafter, the trachea, heart & lungs were removed en masse, the wet weights of the heart & lungs recorded and then the lungs were harvested, fixed and processed for histopathology.
Aperio's ImageScope was used to analyze the digitally scanned H&E stained lung sections, where 10 random squares (approx. size or each square=1×10^6 μm^2) per lower, middle and upper section of lung tissue were selected for analysis. Within each square, all blood arterioles (complete arterioles within each square and those touching the right & bottom were assessed but not the left or top of the squares) were measured in ImageScope for luminal and total vessel diameter where the ratio of lumen to total vessel diameter was determined for each arteriole.
FIGS. 24-27 show the effect of the test articles on the mean (±S.E.M.) lumen: total vessel diameter ratio for all arterioles (Total) and the arterioles categorized by size: small, <50 μm total diameter; medium, 50-100 μm and large, >100 μm.
FIG. 27 presents data representing the mean (±SEM) lumen: total vessel diameter ratio for large arterioles (>100 μm).

| SMILES | IC50 (TP) [nM] | efficacy in the MCT-induced PAH model (hemodynamic and histological features) (MCT-induced PAH; MCT 60 mg/kg s.c., oral 0.25 mg/kg/dose BID for 28 days) | lumen: total vessel diameter ratio versus animals treated with MCT-alone (MCT-induced PAH) |
| --- | --- | --- | --- |
| CC(C)(C)NC(=O)NS(=O)(=O)c1cc(C#N)ccc1Oc1cccc(-c2ccc(OC(F)F)cc2)c1 [NTP42] | 3.28 ± 0.34 | efficacious | significantly increased |
| CN(C)C(=O)c1ccc(-c2cccc(Oc3ccc(C#N)cc3S(=O)(=O)NC(=O)NC(C)(C)C)c2)cc1 [NTP48, 4-[3-[2-(tert-Butylcarbamoylsulfamoyl)-4-cyano-phenoxy]phenyl]-N,N-dimethyl-benzamide] | 7.71 ± 0.96 |  |  |
| COc1ccc(-c2cccc(Oc3ccc([N+](=O)[O-])cc3S(=O)(=O)NC(=O)NC(C)(C)C)c2)cc1 [TP20, reference compound] |  |  | significantly increased |

Source: patent publication US10966994B2, “Thromboxane receptor antagonists” (ATXA THERAPEUTICS LIMITED, priority 2015, dated 2021)
